Laboratory results reported in patent publication US12465594B2 (Brown University, priority 2018, dated 2025).

How the values were obtained:
[1] = molecular target: HEK293 cells expressing FLAG-CRFBP(10 kD)-HA-CRF2α (Homo sapiens, UniProt P24387+Q13324); conditions: 384-well format
[2] = system: NMDAR EPSCs in VTA dopamine neurons; experiment: Electrophysiology: CRF potentiation of NMDAR EPSCs in VTA slices; type: cell-based, mouse; conditions: CRF 1 μM, VTA-DA neurons, acute brain slices
From the text: Male and female mice (n=44; 6-10 weeks) were anesthetized with Euthasol (Butler-Schein). Brains were rapidly removed and placed in ice-cold NMDG-based artificial Cerebrospinal Fluid (aCSF) cutting solution containing (in mM): 92 NMDG, 20 HEPES, 25 glucose, 30 NaHCO3, 2.5 KCl, 1.2 NaPO4 saturated with 95% O2/5% CO2 with an osmolarity of 305-308 mOsm (Advanced Cell Diagnostics). The brain was cut in ice-cold NMDG solution to obtain horizontal VTA slices, 230 μm thick, using a Leica vibratome (Leica VT1200) and slices were incubated in warm NMDG solution (34° C.) for <5 minutes before being placed in a modified aCSF holding solution (in mM): 92 NaCl, 20 HEPES, 25 glucose, 30 NaHCO3, 2.5 KCl, 1.2 NaPO4 (305-308 mOsm). Slices were incubated at room temperature for at least 1 hour before recording.
Whole-cell patch clamp of the lateral VTA was performed under the guidance of IR-DIC optics on an Olympus BX5iWI microscope. Cells were patched with 1.8-3 MO resistance glass microelectrodes containing the following internal solution (in mM): 117 cesium methanesulfonate, 20 HEPES, 0.4 EGTA, 2.8 NaCl, 5 TEA-CI, 4 Mg-ATP, 0.4 Na-GTP, and 5 QX-314 (280-285 mOsm). Dopamine cells were identified by the following criteria: 1) large multipolar soma, 30-40 μm in diameter, 2) tonic firing of <4 Hz when cell attached, 3) large […] with negative voltage step (identified immediately following break in). […] Series resistance was monitored online. […]
For electrophysiology measures, excitatory post-synaptic currents (EPSCs) were normalized to 7 minute of averaged baseline responses, prior to drug application. […] Results are reported as M±SEM a in bar graphs comparing drug to vehicle and analyzed by a one-way ANOVA and post-hoc comparisons to vehicle were performed using a Bonferroni multiple comparisons correction measures (**p<0.01). […]
NMDAR excitatory postsynaptic currents (EPSCs) were recorded from VTA dopamine (DA) neurons in acute brain slices from male and female mice. […]

HEK293 cells expressing FLAG-CRFBP(10 kD)-HA-CRF2α, sequence (P24387+Q13324 fused): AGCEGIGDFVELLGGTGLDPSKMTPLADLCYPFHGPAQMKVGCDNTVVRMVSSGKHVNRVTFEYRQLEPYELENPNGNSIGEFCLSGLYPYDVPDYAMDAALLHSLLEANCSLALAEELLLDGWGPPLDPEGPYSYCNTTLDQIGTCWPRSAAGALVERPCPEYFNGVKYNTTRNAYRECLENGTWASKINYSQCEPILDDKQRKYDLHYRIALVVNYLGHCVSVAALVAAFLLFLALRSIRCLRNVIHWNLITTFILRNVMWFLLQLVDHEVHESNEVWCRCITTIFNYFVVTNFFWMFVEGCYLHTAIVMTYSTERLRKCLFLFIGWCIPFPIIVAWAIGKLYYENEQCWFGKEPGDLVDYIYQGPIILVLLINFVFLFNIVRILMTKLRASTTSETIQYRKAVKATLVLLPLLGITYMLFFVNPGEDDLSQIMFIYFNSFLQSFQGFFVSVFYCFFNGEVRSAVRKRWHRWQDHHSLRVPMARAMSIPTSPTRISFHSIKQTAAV

corticotropin releasing factor [CRF, reference compound]
EC80, CRF-induced intracellular calcium release [1]: 1000 nM
Effect of CRF on NMDAR EPSCs [2]: potentiated NMDA receptor EPSCs
